Data: article PMC4584354, “Synthesis and Antiplasmodial Evaluation of Analogues Based on the Tricyclic Core of Thiaplakortones A–D” (Marine Drugs, 2015)
Read-outs that look alike come from different tables or passages of the source.

What was measured:
[1] = tested on: P. falciparum multidrug-resistant line (Dd2); experiment: P. falciparum growth inhibition assay ([3H]-hypoxanthine isotopic microtest), Dd2 line; format: cell-based; conditions: Plasmodium falciparum, read-out: Mean IC50 ± SD, Dd2
Experimental: (§1) P. falciparum growth inhibition assays were carried out using an isotopic microtest, as previously described [16]. […] The final concentration of DMSO vehicle was <0.5% in all assay wells (non-toxic). After 48 h cells were harvested onto 1450 MicroBeta filter mats (PerkinElmer, Waltham, Massachusetts, USA) and [^3H] incorporation determined using a 1450 MicroBeta liquid scintillation counter. Percentage inhibition of growth compared to matched DMSO controls was determined and IC50 values were calculated using linear interpolation of inhibition curves [17]. The mean IC50 or % inhibition (±SD) was calculated for three independent experiments, each carried out in triplicate.

[2] = tested on: P. falciparum chloroquine-sensitive line (3D7); experiment: P. falciparum growth inhibition assay ([3H]-hypoxanthine isotopic microtest), 3D7 line; format: cell-based, Plasmodium falciparum; conditions: for IC50: Plasmodium falciparum, read-out: Mean IC50 ± SD, 3D7; for increase in 3D7 activity on exchanging saturated system (13, 14) for unsaturated motif: 15 vs 13, 16 vs 14
Experimental: as §1

[3] = tested on: neonatal foreskin fibroblast (NFF) cells; experiment: Mammalian toxicity using human neonatal foreskin fibroblast cells; format: cell-based; conditions: for IC50: Homo sapiens, NFF, read-out: Mean IC50 ± SD, NFF; for SI (selectivity index = NFF cell-line IC50/P. falciparum IC50): range over 3D7 and Dd2 lines
blood stage P. berghei = tested on: blood stage P. berghei; design: method as in PMID 25490858; conditions: mice, subcutaneous 32 mg/kg twice daily for 4 d; cited from earlier work
[4] = design: method as in PMID 25490858; conditions: subcutaneous 32 mg/kg twice daily for 4 d; cited from earlier work
[5] = design: method as in PMID 25490858; conditions: cited from earlier work
[6] = design: method as in PMID 25490858; conditions: administered subcutaneously to mice; remained above this level for 8 h; cited from earlier work
[7] = design: method as in PMID 25490858; conditions: cited from earlier work; remark: listed apart in the source
Plasmodium falciparum = experiment: In vitro P. falciparum growth inhibition (line not given); format: cell-based; conditions: 3D7 and Dd2 lines
[8] = tested on: P. falciparum chloroquine-sensitive line (3D7); design: method as in PMID 24032556; conditions: chloroquine-sensitive (3D7) P. falciparum line; read-out: in vitro IC50, 3D7; cited from earlier work
[9] = tested on: P. falciparum multidrug-resistant line (Dd2); design: method as in PMID 24032556; conditions: read-out: in vitro IC50, Dd2; cited from earlier work
[10] = P. falciparum multidrug-resistant line Dd2, 48 h, three independent experiments in triplicate
[11] = P. falciparum chloroquine-sensitive line 3D7, 48 h, three independent experiments in triplicate
[12] = neonatal foreskin fibroblast cells

Row | SMILES | SI (selectivity index = NFF cell-line IC50/P. falciparum IC50) [3] | IC50 [1, 10] [µM] | IC50 [2, 11] [µM] | IC50 [3, 12] [µM] | also measured
1 | CCN(CC)CCCC(C)Nc1ccnc2cc(Cl)ccc12 (stereo not drawn) [CQ, chloroquine, reference compound] | 811.1–4679.5 |  |  |  | IC50 ([1]; DD2, 48 h): 0.045 ± 0.01 µM; IC50 ([2]; 3D7, 48 h): 0.0078 ± 0.0027 µM; IC50 [3]: 36.5 µM
2 | CC(=O)NCCc1c[nH]c2c1C(=O)C1=C(NC=CS1(=O)=O)C2=O [Compound 8] |  |  |  |  | suppression of blood stage P. berghei parasitemia relative to controls (blood stage P. berghei): 52%; tolerability in mice [4]: well tolerated; solubility [5]: good; plasma concentration [6]: > 200 nM; metabolic stability [7]: good
3 | CCCCNC(=O)NCCc1c[nH]c2c1C(=O)C1=C(NC=CS1(=O)=O)C2=O [Compound 9] |  |  |  |  | suppression of blood stage P. berghei parasitemia relative to controls (blood stage P. berghei): 26%; tolerability in mice [4]: well tolerated; solubility [5]: good; plasma concentration [6]: > 200 nM; metabolic stability [7]: good
4 | Cc1ccc(S(=O)(=O)n2ccc3c2C(=O)C=CC3=O)cc1 [Compound 10, 1-tosyl-1H-indole-4,7-dione] | 0.4–0.7 | 11.1 | 18.2 | 7.6 ± 1.2 | antiplasmodial activity (Plasmodium falciparum): essentially inactive
5 | Cc1ccc(S(=O)(=O)n2ccc3c2C(=O)C2=C(NCCS2(=O)=O)C3=O)cc1 [Compound 11] |  | 0.509 ± 0.309 | 0.546 ± 0.119 | 1.4 ± 0.7 | 
6 | Cc1ccc(S(=O)(=O)n2ccc3c2C(=O)C2=C(C3=O)S(=O)(=O)CCN2)cc1 [Compound 12] | 22.8–31.3 | 0.607 ± 0.158 | 0.834 ± 0.089 | 19 | 
7 | O=C1C2=C(C(=O)c3[nH]ccc31)S(=O)(=O)CCN2 [Compound 13] | 5.2–10.3 | 3.8 ± 0.4 | 7.5 ± 0.9 | 39 | 
8 | O=C1C2=C(NCCS2(=O)=O)C(=O)c2[nH]ccc21 [Compound 14] | 10.1–18.8 | 3.7 ± 0.5 | 6.9 ± 0.7 | 69.6 | 
9 | O=C1C2=C(C(=O)c3[nH]ccc31)S(=O)(=O)C=CN2 [Compound 15] | 8.9–21.7 | 0.129 ± 0.0039 | 0.313 ± 0.084 | 2.8 ± 0.4 | increase in 3D7 activity on exchanging saturated system (13, 14) for unsaturated motif [2]: 23.9 fold
10 | O=C1C2=C(NC=CS2(=O)=O)C(=O)c2[nH]ccc21 [Compound 16] | 18.2–36.2 | 0.127 ± 0.0086 | 0.252 ± 0.035 | 4.6 ± 0.8 | increase in 3D7 activity on exchanging saturated system (13, 14) for unsaturated motif [2]: 27.3 fold
11 | O=C1C=CC(=O)c2[nH]ccc21 [Compound 17, 1H-indole-4,7-dione] | 0.3–0.4 | 11.5 | 13.5 | 4.7 ± 0.1 | antiplasmodial activity (Plasmodium falciparum): essentially inactive
12 | NCCc1c[nH]c2c1C(=O)C1=C(NC=CS1(=O)=O)C2=O [Thiaplakortone A, thiaplakortone A] |  |  |  |  | IC50 [8]: 0.051 µM; IC50 [9]: 0.0066 µM
